From patent publication US8399465B2, “Compounds with two fused bicyclic heteroaryl moieties as modulators of leukotriene A4 hydrolase” (Janssen Pharmaceutica NV, priority 2009, dated 2013)
Where a name gives a salt, the structure may show the parent alone.

Each compound was assayed against T1, recombinant human LTA4 hydrolase (rhLTA4H) (Homo sapiens, UniProt P09960) (assay: Recombinant human LTA4 hydrolase assay for LTA4 hydrolase inhibitor activity). Conditions: rhLTA4H, LTB4 by immunoassay; single determination or average of two or more; mark after value = form tested: ′ free base, ″ hydrochloride, ^ formate; read-out: IC50.
T1 construct: made in house; host or cells: Spodoptera frugiperda (Sf-9) cells, baculovirus (pFastBac1)
T1 sequence (P09960 1-611): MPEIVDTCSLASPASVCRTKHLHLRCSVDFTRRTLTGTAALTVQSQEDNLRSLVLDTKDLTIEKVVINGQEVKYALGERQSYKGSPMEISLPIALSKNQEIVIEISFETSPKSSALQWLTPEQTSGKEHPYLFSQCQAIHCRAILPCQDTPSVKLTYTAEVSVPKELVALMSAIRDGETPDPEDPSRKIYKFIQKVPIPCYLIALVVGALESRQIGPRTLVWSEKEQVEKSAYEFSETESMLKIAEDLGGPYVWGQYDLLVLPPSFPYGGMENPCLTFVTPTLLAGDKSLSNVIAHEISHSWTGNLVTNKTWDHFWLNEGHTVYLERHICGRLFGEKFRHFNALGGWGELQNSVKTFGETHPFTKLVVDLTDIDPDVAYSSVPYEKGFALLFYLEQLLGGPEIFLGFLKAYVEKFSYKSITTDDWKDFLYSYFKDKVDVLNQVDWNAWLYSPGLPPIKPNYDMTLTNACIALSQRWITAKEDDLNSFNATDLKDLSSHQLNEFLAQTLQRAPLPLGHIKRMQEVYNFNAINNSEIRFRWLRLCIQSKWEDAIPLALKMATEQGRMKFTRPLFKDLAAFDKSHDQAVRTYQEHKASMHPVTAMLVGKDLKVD
Format: biochemical
Protocol: Assay 1: Recombinant Human LTA4 Hydrolase Assay for LTA4 Hydrolase Inhibitor Activity
Compounds of the present invention were tested for LTA4 hydrolase inhibitor activity against recombinant human LTA4 hydrolase (rhLTA4H). Vectors were prepared and used to express rhLTA4H essentially as follows: LTA4 hydrolase encoding DNA was amplified by polymerase chain reaction (PCR) using a human placental cDNA library as a template. […] The amplified 1.9 kb DNA fragment encoding LTA4 hydrolase was isolated and cloned into the pFastBac1 vector (Invitrogen). Recombinant baculovirus was generated as described by the manufacturer, and used to infect Spodoptera frugiperda (Sf-9) cells. […] The purified enzyme solution was adjusted to contain 0.29 mg/mL LTA4 hydrolase, 50 mM Tris (pH 8.0), 150 mM NaCl, 5 mM dithiothreitol, 50% glycerol, and EDTA-free Complete protease inhibitor cocktail (Roche).
LTA4 substrate was prepared from the methyl ester of LTA4 (Cayman Chemical) by treatment with 67 equiv of NaOH under nitrogen at rt for 40 min. The LTA4 substrate in its free acid form was kept frozen at −80° C. until needed. Each compound was diluted to different concentrations in assay buffer (from Assay Designs) containing 10% DMSO. A 25-μL aliquot of each compound dilution was incubated for 10 min at rt with an equal volume of assay buffer containing 10 ng of recombinant human LTA4H. The solution was then adjusted to 200 μL with assay buffer. […] Each reaction was carried out at rt for 30 min. The reaction was stopped by diluting 10 μL of the reaction mixture with 200 μL of assay buffer. LTB4 was quantified in the diluted sample by a commercially available enzyme-linked immunoassay (Cayman Chemical Co.), as recommended by the manufacturer. Positive controls, under essentially identical conditions but without addition of an inhibitor compound, and negative controls, containing all assay components except enzyme, were routinely run in each experiment. IC50 values were determined by nonlinear regression of the activity data at different compound concentrations using Graphpad Prism 4.0, one site binding competition.
The values presented here are the result of a single determination or an average of two or more determinations. Compounds that were not tested are indicated as such by a “NT” designation.

Compound | IC50 [nM]
CC(=O)N1C[C@H]2CC[C@@H](C1)N2Cc1cc2ncc(Oc3nc4ncccc4s3)cc2o1 [Example 338, meso-1-{8-[6-(Thiazolo[4,5-b]pyridin-2-yloxy)-furo[3,2-b]pyridin-2-ylmethyl]-3,8-diaza-bicyclo[3.2.1]oct-3-yl}-ethanone formate] | 450
CC(=O)N[C@H]1C[C@H]2CC[C@@H](C1)N2Cc1cc2ccc(Oc3nc4cccnc4s3)cc2o1 [Example 126, meso-endo-N-{8-[6-(Thiazolo[5,4-b]pyridin-2-yloxy)-benzofuran-2-ylmethyl]-8-aza-bicyclo[3.2.1]oct-3-yl}-acetamide] | 610
CC(=O)N1C[C@@H]2C[C@H]1CN2Cc1cc2ccc(Oc3nc4cnccc4s3)cc2o1 [Example 203, (1S,4S)-1-{5-[6-(Thiazolo[4,5-c]pyridin-2-yloxy)-benzofuran-2-ylmethyl]-2,5-diaza-bicyclo[2.2.1]hept-2-yl}-ethanone] | 2570
FC1CCN(Cc2cc3cc(Oc4nc5ncccc5s4)ccc3o2)CC1 [Example 111, 2-[2-(4-Fluoro-piperidin-1-ylmethyl)-benzofuran-5-yloxy]-thiazolo[4,5-b]pyridine] | 281
O=C(c1ccccc1)C1CCN(C(=O)c2coc3cc(Oc4nc5ncccc5s4)ccc23)CC1 [Example 387, (4-Benzoyl-piperidin-1-yl)-[6-(thiazolo[4,5-b]pyridin-2-yloxy)-benzofuran-3-yl]-methanone] | 150
NC(=O)N1C[C@@H]2C[C@H]1CN2Cc1cc2ccc(Oc3nc4ncccc4s3)cc2o1 [Example 117, (1S,4S)-5-[6-(Thiazolo[4,5-b]pyridin-2-yloxy)-benzofuran-2-ylmethyl]-2,5-diaza-bicyclo[2.2.1]heptane-2-carboxylic acid amide] | 118
O=C(O)C1CCN(CCc2c[nH]c3ccc(Oc4nc5ccccc5s4)cc23)CC1 [Example 73, 1-{2-[5-(Benzothiazol-2-yloxy)-1H-indol-3-yl]-ethyl}-piperidine-4-carboxylic acid] | 3460
c1ccc2sc(Oc3ccc4[nH]cc(CCN5CCCCC5)c4c3)nc2c1 [Example 74, 2-[3-(2-Piperidin-1-yl-ethyl)-1H-indol-5-yloxy]-benzothiazole] | 2030
c1cnc2nc(Oc3ccc4cc(CN5CCCCC5)sc4c3)sc2c1 [Example 136, 2-(2-Piperidin-1-ylmethyl-benzo[b]thiophen-6-yloxy)-thiazolo[4,5-b]pyridine] | 117
c1ccc2sc(Oc3ccc4oc(CN5CCCCC5)cc4c3)nc2c1 [Example 82, 2-(2-Piperidin-1-ylmethyl-benzofuran-5-yloxy)-benzothiazole formate] | 190
O=C(O)CN1CCN(Cc2cc3ccc(Oc4nc5ccccc5s4)cc3o2)CC1 [Example 79, {4-[6-(Benzothiazol-2-yloxy)-benzofuran-2-ylmethyl]-piperazin-1-yl}-acetic acid formate] | 460
CCn1c(CN2CCCCC2)cc2cc(Oc3nc4ccccc4s3)ccc21 [Example 62, 2-(1-Ethyl-2-piperidin-1-ylmethyl-1H-indol-5-yloxy)-benzothiazole] | 382
CCOC(=O)C1CCN(CCc2coc3cc(Oc4nc5ccccc5s4)ccc23)CC1 [Example 149, 1-{2-[6-(Benzothiazol-2-yloxy)-benzofuran-3-yl]-ethyl}-piperidine-4-carboxylic acid ethyl ester] | 170
CC(=O)N1C[C@H]2CC[C@@H](C1)N2Cc1cc2cc(Oc3nc4cccnc4s3)ccc2o1 [Example 123, meso-1-{8-[5-(Thiazolo[5,4-b]pyridin-2-yloxy)-benzofuran-2-ylmethyl]-3,8-diaza-bicyclo[3.2.1]oct-3-yl}-ethanone] | 89

Results, then the compound that gave them:

IC50 [nM] | Compound
230 | NS(=O)(=O)c1ccc(CCNCc2coc3cc(Oc4nc5ccccc5s4)ccc23)cc1 [Example 311, 4-(2-{[6-(Benzothiazol-2-yloxy)-benzofuran-3-ylmethyl]-amino}-ethyl)-benzenesulfonamide]
13 | COc1ccc(CNCc2coc3cc(Oc4nc5ncccc5s4)ccc23)cc1 [Example 346, (4-Methoxy-benzyl)-[6-(thiazolo[4,5-b]pyridin-2-yloxy)-benzofuran-3-ylmethyl]-amine]
160 | CNC(=O)c1coc2cc(Oc3nc4ncccc4s3)ccc12 [Example 367, 6-(Thiazolo[4,5-b]pyridin-2-yloxy)-benzofuran-3-carboxylic acid methylamide]
85 | CC(=O)NCc1coc2cc(Oc3nc4ncccc4s3)ccc12 [Example 395, N-[6-(Thiazolo[4,5-b]pyridin-2-yloxy)-benzofuran-3-ylmethyl]-acetamide]
20 | CCOC(=O)CCN(C)Cc1coc2cc(Oc3nc4ncccc4s3)ccc12 [Example 334, 3-{Methyl-[6-(thiazolo[4,5-b]pyridin-2-yloxy)-benzofuran-3-ylmethyl]-amino}-propionic acid ethyl ester]
169 | CNC(=O)C1CCN(Cc2cc3ccc(Oc4nc5ncccc5s4)cc3o2)CC1 [Example 204, 1-[6-(Thiazolo[4,5-b]pyridin-2-yloxy)-benzofuran-2-ylmethyl]-piperidine-4-carboxylic acid methylamide]
62 | NC(=O)NC1CCN(Cc2cc3ccc(Oc4nc5ncccc5s4)cc3o2)C1 (centres unmarked) [Example 127, 1-(1-{[6-([1,3]Thiazolo[4,5-b]pyridin-2-yloxy)-1-benzofuran-2-yl]methyl}pyrrolidin-3-yl)urea formate]
145 | CC(=O)NC1CCN(Cc2cc3ccc(Oc4nc5ncccc5s4)cc3o2)C1 (centres unmarked) [Example 120, N-(1-{[6-([1,3]thiazolo[4,5-b]pyridin-2-yloxy)-1-benzofuran-2-yl]methyl}pyrrolidin-3-yl)acetamide formate]
110 | CCN(C(=O)c1coc2cc(Oc3nc4ncccc4s3)ccc12)C1CCCCC1 [Example 381, 6-(Thiazolo[4,5-b]pyridin-2-yloxy)-benzofuran-3-carboxylic acid cyclohexyl-ethyl-amide]
35 | CCN(CC)CCNCc1coc2cc(Oc3nc4ncccc4s3)ccc12 [Example 317, N,N-Diethyl-N′-[6-(thiazolo[4,5-b]pyridin-2-yloxy)-benzofuran-3-ylmethyl]-ethane-1,2-diamine]
227 | CC(=O)N1C[C@@H]2C[C@H]1CN2Cc1coc2cc(Oc3nc4cccnc4s3)ccc12 [Example 221, (1S,4S)-1-{5-[6-(Thiazolo[5,4-b]pyridin-2-yloxy)-benzofuran-3-ylmethyl]-2,5-diaza-bicyclo[2.2.1]hept-2-yl}-ethanone]
210 | O=C(c1coc2cc(Oc3nc4ncccc4s3)ccc12)N1CCc2ccccc2C1 [Example 386, (3,4-Dihydro-1H-isoquinolin-2-yl)-[6-(thiazolo[4,5-b]pyridin-2-yloxy)-benzofuran-3-yl]-methanone]
150 | CN(C)CCCN(C)C(=O)c1coc2cc(Oc3nc4ncccc4s3)ccc12 [Example 388, 6-(Thiazolo[4,5-b]pyridin-2-yloxy)-benzofuran-3-carboxylic acid (3-dimethylamino-propyl)-methyl-amide]
1530 | O=C(c1coc2cc(Oc3nc4ncccc4s3)ccc12)N1CCC2CCCCC2C1 (centres unmarked) [Example 385, (Octahydro-isoquinolin-2-yl)-[6-(thiazolo[4,5-b]pyridin-2-yloxy)-benzofuran-3-yl]-methanone]
54 | CCN(CC)Cc1cc2cc(Oc3nc4ncccc4s3)ccc2o1 [Example 329, Diethyl-[5-(thiazolo[4,5-b]pyridin-2-yloxy)-benzofuran-2-ylmethyl]-amine formate]
